“And” between values parts separate entries of the source, which are not always exact repeats. Equal entries are not always repeated.
Columns and labels:
Assay type in all cases: in vivo
[1] = test system: corn seed Variety 1; assay: Internal concentration of glycine-betaine (mg/kg) in corn seed, Variety 1 female lines; conditions: for Percentage increase in internal GB concentration: versus plants treated with water
Description: (§1) To prevent auto-fertilization during the corn seed production, the male reproductive parts of the female line were removed prior to the time of pollen shed.
(§2) The commercial Greenstim® (Lallemand) formulation was sprayed to the female line leaves during grain development stage at the equivalent of 4 kg/hectare. Each repetition consists of 18 plants. Control plants were treated with water.
(§3) Seeds (200) were collected at maturity. Seeds were ground using a ball mill and extracted with ethanol. Samples were evaporated to dryness and dissolved in deuterium oxide (D20) (50 mg/ml). 1H-NMR analysis (Bruker, at 500 MHz) was performed using 3-(trimethylsilyl)-1-propane sulfonate sodium salt (DSS) as the internal standard. Values in ppm assigned to NMR signals are chemical shifts of the 9 protons which give the signal, for the glycine-betaine, at 3.251 ppm. A total of three extractions were performed on each sample.

[2] = test system: corn seeds of the variety LG 32.58; assay: Internal glycine-betaine concentration in corn seeds after foliar application, variety LG 32.58 (field trial, 1H-NMR)
Description: (§4) The field trial was performed with two different varieties of corn: the LG 32.58 variety and the Casey variety.
as §1
[…] Each repetition consists of 18 plants. Control plants were treated with water.
as §3

[3] = test system: corn seeds of the variety Casey; assay: Internal glycine-betaine concentration in corn seeds after foliar application, variety Casey (field trial, 1H-NMR); conditions: Greenstim sprayed on female line leaves at grain development stage, 4 kg/hectare, seeds collected at maturity, Rep 1-3, letter b differs from water control (p < 0.05)
Description: as §4, §1, §2, §3

[4] = test system: corn seed; assay: Effect of cold temperature on corn seed germination
Description: Two hundred seeds of each treatment (plants treated with water and plants treated with glycine-betaine) were planted onto moistened sand. Samples were placed into a germination chamber at 10° C. for a period of 7 days. Samples were then transferred to a germination chamber set to 25° C. for 5 days. The experiment was conducted with a variety of seeds with increased cold tolerance compared to more traditional seed varieties. The germination rate of standard seeds after a cold germination test is between 50 to 70%.

Structure (SMILES): C[N+](C)(C)CC(=O)[O-] [GB, N,N,N-trimethylglycine]
- Internal concentration of glycine-betaine in corn seed, Mean GB (plants treated with GB) ([1]; Variety 1-female 1, Rep 1): 6.67 mg/kg
- Percentage increase in internal GB concentration ([1]; Variety 1-female 1, Rep 1): 53%
- Internal concentration of glycine-betaine in corn seed, Mean GB (plants treated with GB) ([1]; Variety 1-female 2, Rep 2): 5.19 mg/kg
- Percentage increase in internal GB concentration ([1]; Variety 1-female 2, Rep 2): 1135%
- Internal concentration of glycine-betaine in corn seed, Mean GB (plants treated with GB) ([1]; Variety 1-female 3, Rep 3): 6.89 mg/kg
- Percentage increase in internal GB concentration ([1]; Variety 1-female 3, Rep 3): 15%
- GB concentration, GB (plants treated with GB) ([2]; corn variety LG 32.58, Greenstim sprayed on female line leaves at grain development stage, 4 kg/hectare, seeds collected at maturity, Rep 1-3, letter b differs from water control (p < 0.05)): 41.18b μg · g^−1 MS and 37.71b μg · g^−1 MS and 38.53b μg · g^−1 MS
- Internal glycine-betaine content of the seeds compared to untreated seeds ([2]; summary of Tables 1 to 4, plants sprayed at the flowering stage): significantly higher
- GB concentration, GB (plants treated with GB) [3]: 79.19b μg · g^−1 MS and 79.33b μg · g^−1 MS and 83.91b μg · g^−1 MS
- Seed germination percentage (plants treated with GB) ([4]; Variety-female 3, 200 seeds on moistened sand, 10° C. for 7 days then 25° C. for 5 days): 86.61
- Percentage increase in germination ([4]; Variety-female 3, after cold treatment, versus seeds from plants treated with water): 2.1%
- Seed germination percentage after cold treatment compared with untreated seeds ([4]; summary of Table 5, seeds with increased internal content of glycine-betaine): significantly better seed germination percentage

— patent US20210169077A1, “METHOD FOR IMPROVING SEED GERMINATION AND/OR PLANT TOLERANCE TO ENVIRONMENTAL STRESS” (DANSTAR FERMENT AG, priority 2017, published 2021)
